Experimental data published in patent US9593099B2, “Compounds and compositions as protein kinase inhibitors” (Array BioPharma, Inc., priority 2009, dated 2017).

Key:
[1] = In Vivo Pharmacokinetics Assay in mouse
Procedure: In Vivo Pharmacokinetics Assay
(§1) Full pharmacokinetics study: Male Balb/c mice (n=3, body weights 22-25 g) or male Wistar rats (n=3, body weights 250-300 g) were administered the test compound intravenously via the lateral tail vein or orally via gavage. The formulation was typically a 2.5 mg/mL solution of the compound in 75% PEG300 and 25% D5W. Six blood samples of 50 μL each were collected serially for 24 h after dosing. The blood samples were centrifuged to separate the plasma. Plasma samples were analyzed and quantified by LC-MS/MS.
as §1, with “Rapid” for “Full”, “intravenously (IV)” for “intravenously”, “orally (PO)” for “orally”, “Blood” for “The blood”, “and plasma separated and pooled across” for “to separate”, “three animals at each time point per dose route.” for “plasma.”
For both full and rapid pharmacokinetics studies, the following parameters were calculated by non-compartmental regression analysis using Winnonlin 5.0 software (Pharsight, Mountain View, Calif., USA): plasma clearance (Cl), plasma maximum concentration (Cmax), plasma area-under-the-concentration-time-curve (AUC0-inf), and percent oral bioavailability (F %).

[2] = Liver Microsomal Clearance Assay, human; assay type: in vitro ADME
Description: Liver Microsomal Clearance Assay
The in vitro microsomal clearance assay is designed to assess potential risks associated with hepatic metabolic stability of compounds. […] These values may be scaled to predict hepatic metabolic clearance rate (CLh, mL/min/kg) and extraction ratio (ER, expressed as a ratio of the predicted hepatic metabolic clearance to hepatic blood flow in that species). In general, compounds with high predicted CLint or ER in vitro are considered to be at high risk for exposure-limiting metabolism in vivo.

SW620 cells = assay: SW620 Cell Viability Assay (Cell Titer Glo); assay type: cell-based; details: 9 serial dilutions between 10 and 0.002 μM, without MEK inhibitor
Procedure: The present invention also includes combinations of the BRaf inhibitors disclosed in this invention with other agents. In particular, the present invention provides for combinations with MEK1/2 inhibitors. FIG. 1 illustrates that the addition of a MEK small molecule inhibitor can reverse the induced ERK signaling, cell growth and transformation caused by a Raf small molecule inhibitor.
SW620 Cell Viability Assay
SW620 cells were seeded in 1640 RPMI+10% FBS at a density of 1500 cells per 96-well in black walled, clear bottom tissue culture treated plates. Test compounds were serially diluted in DMSO then added to the cells (final DMSO concentration of 0.1%) and incubated at 37° C. and 5% CO2 for 4 days. To measure cell viability, cell plates were brought to room temperature, culture media was removed, and 200 μl of Cell Titer-Glo reagent (Promega, kit components mixed as per the manufacturer's protocol then diluted 1:2 with growth media) was added to each well. Plates were shaken for 5 minutes, then incubated at room temperature for 5 minutes, and the luminescence was measured (Trilux, Perkin Elmer).

p38α MAP Kinase = assay: A549 p38α MAP Kinase Bright-Glo Reporter Gene Assay; assay type: cell-based; details: ratio of A549 p38 RGA IC50 to A375 CP IC50
Procedure: A549 p38α MAP Kinase Bright-Glo Reporter Gene Assay
A549 cells were stably-transfected with the IL-8 promoter driven reporter, pGL3-IL8-Luc. The cells were plated at 4×10^5/ml into 384-well solid white plates (40 ul/well, 5% CD-FBS, 1×P/S, DMEM) and were incubated overnight (18-20 hours) at 37° C. Test compounds were serially diluted in DMSO, then 50 nl of test solution was added to the incubation (final DMSO concentration of 0.1%). After incubating with test compound for 30 min, cells were stimulated with 1 ng/ml IL-1 beta (10 ul of 5 ng/ml solution per well). Bright-Glo (25 ul/well) was added to measure luciferase expression after 7-8 hours of stimulation.

CCCS(=O)(=O)Nc1ccc(F)c(-c2nn(C(C)C)cc2-c2ccnc(NC[C@H](C)NC(=O)OC)n2)c1F [Compound 7, Methyl N-[(2S)-1-[(4-{3-[2,6-difluoro-3-(propane-1-sulfonamido)phenyl]-1-(propan-2-yl)-1H-pyrazol-4-yl}pyrimidin-2-yl)amino]propan-2-yl]carbamate]
F ([1]; PO/IV 10/2 mg/kg): 8 ± 7%

COC(=O)N[C@@H](C)CNc1nccc(-c2cn(C(C)C)nc2-c2cc(Cl)cc(NS(C)(=O)=O)c2F)n1 [Compound 9, Methyl N-[(2S)-1-({4-[3-(5-chloro-2-fluoro-3-methanesulfonamidophenyl)-1-(propan-2-yl)-1H-pyrazol-4-yl]pyrimidin-2-yl}amino)propan-2-yl]carbamate]
ER (human) [2]: < 0.21 | F ([1]; PO/IV 10/2 mg/kg): 43 ± 6% | effect on cellular proliferation (negative inhibition in FIG. 1) (SW620 cells): induction in cellular proliferation

CCCS(=O)(=O)Nc1cc(Cl)cc(-c2nn(C(C)C)cc2-c2ccnc(NC[C@H](C)NC(=O)OC)n2)c1F [Compound 1, Methyl N-[(2S)-1-[(4-{3-[5-chloro-2-fluoro-3-(propane-1-sulfonamido)phenyl]-1-(propan-2-yl)-1H-pyrazol-4-yl}pyrimidin-2-yl)amino]propan-2-yl]carbamate]
F ([1]; PO/IV 5/2 mg/kg, n = 1): 46 (n = 1) %

COC(=O)NC[C@H](C)Nc1nccc(-c2cn(C(C)C)nc2-c2cc(Cl)cc(NS(C)(=O)=O)c2F)n1 [Compound 32, Methyl N-[(2S)-2-({4-[3-(5-chloro-2-fluoro-3-methanesulfonamidophenyl)-1-(propan-2-yl)-1H-pyrazol-4-yl]pyrimidin-2-yl}amino)propyl]carbamate]
(p38 RGA)/(A375) ratio (p38α MAP Kinase): 91

CNc1nccc(-c2cn(C(C)C)nc2-c2cc(Cl)cc(NS(C)(=O)=O)c2F)n1 [Compound 29, N-(5-chloro-2-fluoro-3-{4-[2-(methylamino)pyrimidin-4-yl]-1-(propan-2-yl)-1H-pyrazol-3-yl}phenyl)methanesulfonamide]
(p38 RGA)/(A375) ratio (p38α MAP Kinase): 220

CCCS(=O)(=O)Nc1cccc(-c2nn(C(C)C)cc2-c2ccnc(NC[C@H](C)NC(=O)OC)n2)c1F [Compound 3, methyl N-[(2S)-1-[(4-{3-[2-fluoro-3-(propane-1-sulfonamido)phenyl]-1-(propan-2-yl)-1H-pyrazol-4-yl}pyrimidin-2-yl)amino]propan-2-yl]carbamate]
F ([1]; PO/IV 5/2 mg/kg, n = 1): 6 (n = 1) %

COC(=O)N[C@@H](C)CNc1nccc(-c2cn(C(C)C)nc2-c2cccc(NS(C)(=O)=O)c2F)n1 [Compound 4, methyl N-[(2S)-1-({4-[3-(2-fluoro-3-methanesulfonamidophenyl)-1-(propan-2-yl)-1H-pyrazol-4-yl]pyrimidin-2-yl}amino)propan-2-yl]carbamate]
F ([1]; PO/IV 10/2 mg/kg): 36 ± 6%

COC(=O)N[C@@H](C)CNc1nccc(-c2cn(C(C)C)nc2-c2c(F)ccc(NS(C)(=O)=O)c2F)n1 [Compound 6, methyl N-[(2S)-1-({4-[3-(2,6-difluoro-3-methanesulfonamidophenyl)-1-(propan-2-yl)-1H-pyrazol-4-yl]pyrimidin-2-yl}amino)propan-2-yl]carbamate]
ER (human) [2]: 0.69 | F ([1]; PO/IV 10/2 mg/kg): 15 ± 3%
